The values below come from patent US20030073654A1, “Stabilized transient gene expression” (Genespan Corporation, priority 1996, published 2003).

Entries after “also recorded” stand apart in the source; their conditions may differ.

Data set [1] deals with SW480 cells. Briefly: Assay for cytotoxicity (trypan blue viability, 8 day static culture). The class given is cell-based, human. The settings on record: Table 13, protocol of Example 10. Here is the method:
1. […] However, it should be understood that various types of cells vary in their sensitivity to different chemical compounds. Thus, while SW480 cells may be used as a convenient tool for determining biocompatible concentrations of the chemical compounds, it may be necessary to empirically adjust the concentrations determined with SW480 cells in order to optimize biocompatibility with other types of cells.
A number of chemical compounds were tested in 6-well plates according to the protocol described in Example 1 to determine the relationship between their cytotoxicity and their ability to promote the uptake and expression of foreign genes in SW480 cells. Unless otherwise noted, except for the control, all plates contained 4 mM L-glutamine as well as gentamicin to retard bacterial growth.
Cytotoxicity assays were performed as follows. SW480 cells (approximately 1×10^6 cells per well) were plated in 1 ml of RPMI in 6-well culture dishes at day zero in the presence of the chemical compound whose cytotoxicity was being tested. Twenty-four hours after seeding the wells, the RPMI medium was removed, and liposomes containing foreign DNA were added to the culture in 1 ml of OPTI-MEM medium, as described in Example 1. The transfection medium also contained the chemical compounds whose cytotoxicity was being tested. Control plates were included that were identical to the test plates, except that the test compounds were not present in the culture medium. Test and control cultures were grown under “static” conditions, i.e., the plates were not shaken, rotated, or otherwise agitated. Each day for a total of 8 days, the cells from one test well and one control well were harvested and viability assessed by staining with trypan blue. […] The chondroitin sulfate used here was as in Example 2.

The subject of data set [2] is SW480 cells. Briefly: Influence of polysaccharide size/type on transient expression (protocol of plate #6, polysaccharide substituted for chondroitin sulfate). The class given is cell-based, human. The settings on record: for FACTOR G / FACTOR K / FACTOR X / Total β-gal (ng) from 2 × 10^4 Cells in 14 Days: Table 13; for effectiveness in enhancing transient expression: running text of Example 10. As for the experimental part:
A 15 plate experiment was conducted in which the chemical compounds indicated in Table 9 were added to the culture medium of SW480 cells that were transfected in 6-well plates as detailed in Example 1. […] The chondroitin sulfate used for these experiments was as in Example 2. The most efficacious formulations, in order of their effectiveness, were those used in plates 6, 3, 13 and 14. […] The following experiments were conducted to determine the effects of polysaccharide size on their effectiveness in enhancing transient expression. […] The chondroitin sulfate used for these comparisons was obtained either from Biorelease, or was prepared by treating large (>20 kDa) chondroitin sulfate (Type A) with alkali, then acid. The size of the non-purchased preparations was determined by electrophoretic comparison with Biorelease 4 kDa chondroitin sulfate using PhastSystem gels in accord with the manufacturer's instructions (Pharmacia). The results are shown in Table 11, in which the ranges observed for X and […] in the four trials are shown in parentheses below the averages. […] Table 12 also presents the results of the Limulus amebocyte lysate (LAL) endotoxin assay, expressed as endotoxin units per ml (Eu/ml), which was performed on all media used before, during and after transfection, but before adding serum. This assay provides a quantitative measure for Gram-negative bacterial endotoxin in aqueous solutions. […] The LAL results in Table 12 are those for the post-transfection media, assayed prior to adding serum. All solutions used for these experiments were prepared in a hood using standard aseptic procedures.

The test system of data set [3] is SW480 P3 (ATCC #CCL228) human colon carcinoma cells. Briefly: Screening assay for enhancement of transient expression (β-galactosidase gene, liposomal transfection, 6-well plates). It is filed as cell-based. From the text:
These parameters are called the “X” factor, the “G” factor, and the “K” factor. [formula]
This factor reflects the extent to which a chemical compound added to a transfected cell enhances stabilizes transient expression for the first four days following transfection. […] For example, if expression is doubled in the presence of a compound, […]. […] X may be calculated similarly when the agent in question is a mixture of more than one chemical compound.
Cumulative protein expression, i.e., the values for “A” and “C”, is measured by summing the values measured daily in aliquots of the cultured cells.
2. G factors. G factors differ from the X factor only with respect to the time period evaluated. For calculating a G factor, the amount of protein expressed is measured from days 4-7 or days 4-14, where day 0 is the day on which the foreign DNA is added to the cells. The subscripts denote which of the two time periods provided the basis for measurement. […] As for the X factor, [formula]
3. K factor. The K factor is the ratio of the rate constants for the change in the foreign DNA expression in control transfected cells and in cells exposed to a chemical compound of the subject invention. K is determined according to the following equation: [formula]
wherein “k(DNA)” is the first order rate constant for the change in concentration of the protein expressed from the transgenic DNA, which is expressing protein as a function of time, i.e., [formula]
Values for k(DNA) are derived by using a computer program that plots the log of the foreign protein concentration against time, using the results of transgenic protein measurements that begin about 24 hours after the foreign DNA has been added to the cell. […] However, the program calculates a “best fit” line for each data set, and determines the slope of that portion of the resulting line that corresponds to the period during which protein production is changing. […] Thus, the slope is calculated during this period of decline to provide values for k(DNA) and K that can be compared for the purpose of comparing the efficacy of different chemical compounds.
SW480 P3 (ATCC #CCL228) human colon carcinoma cells (typically, 1×10^6 cells) were plated in the wells of a 6-well tissue culture plate. The number of wells plated reflected the number of days post-transfection during which the experiment would proceed. Each well contained 1 ml of complete media from a 30 ml stock solution containing: 26.4 ml RPMI tissue culture medium, 4 mM L-glutamine, 3.0 ml fetal bovine serum, and 10 μg/ml gentamicin. Cells were cultured at 37° C. in a CO2 incubator with 10% CO2 for 24 hours after being plated, during which time the cells adhered to the plates.
After the 24 hour pre-incubation step, the transfection step was carried out by removing the RPMI and adding 900 μL OPTI-MEM® (Gibco) medium containing 2 μg of VR1412 DNA (Vical, Inc., San Diego, Calif.), which expresses the bacterial β-galactosidase gene under the control of a cytomegalovirus promoter, and 8 μg of a mixture of cationic lipid (1,2-dimyristyloxyproply-3-dimethyl-hydroxyethyl ammonium bromide (e.g., “DMRIE/DOPE”) mixed in equimolar proportions with dioleoylphosphatidylethanolamine) to yield a lipid:DNA molar ratio of 0.99:1. It should be noted that typical transient transfection protocols employ 10 μg DNA per 10^6 cells, but the protocol described here uses less DNA in order to reduce toxicity to the cells. The plates were then incubated for 4 hours at 37° C.
After the 4 hour incubation step, 100 μl of heat deactivated fetal bovine serum (to stop transfection), plus 12.0 μl of 50 mg/ml gentamicin were added to each well.

Data set [4] relates to SW480 cells. Description: Transient expression in HPBr hollow fiber perfusion bioreactor (2-week β-galactosidase production). The class given is cell-based, human. The settings on record: relatively high rotational speed. As for the experimental part:
A series of four lipofection-based gene transfection experiments were conductive in a high performance hollow fiber perfusion prototype bioreactor device (hereafter referred to as the […] device) in a Genespan prototype incubator instrument. The device consists essentially of a sterile chamber through which two sets of hollow fibers are passed. Culture medium is continuously circulated through one set of fibers, while gases required (e.g., oxygen and carbon dioxide) for cell growth are passed through the second set of fibers. The fibers are composed of a porous material through which gases and nutrients can pass in one direction, while waste molecules produced by the cells growing within the chamber can pass in the other direction. Cells growing in the device may remain in suspension, or may attach to the outer surfaces of both sets of hollow fibers.
A useful feature of the HPBr device is that the cells can be agitated by rotating the chamber through which the tubes pass. […]
Daily samples (about 1.5 ml) of cells and supernatant were taken from the cell compartment of each bioreactor and an equal volume of fresh media was added to replace it. Cell counts and viabilities were determined, and […] were lysed and retained for β-galactosidase determination using the spectrophotometric method described in Example 1. […]

In the case of `CC(=O)N[C@H]1C(O)O[C@H](CO)[C@H](OS(=O)(=O)O)[C@@H]1O[C@@H]1OC(C(=O)O)=C[C@H](O)[C@H]1O` (stereo partly drawn) [Chondro ΔDi-4S], the Cytotoxic entry in the data set on SW480 cells [1] was “Yes”. Moreover, the Cytotoxic entry in the data set with SW480 cells [1] (listed as disaccharide units derived from Type A) is given as “cytotoxic”. Also, in the data set on SW480 cells [2], the “FACTOR G” value was found to be 40.1, the “FACTOR K” value is on record as 0.4, the “FACTOR X” value is −28.2 and the “Total β-gal (ng) from 2 × 10^4 Cells in 14 Days” value (from here on “Total β-gal (ng)”) is given as 184.7 ng.
As to `CC(=O)N[C@H]1C(O)O[C@H](COS(=O)(=O)O)[C@H](O)[C@@H]1O[C@@H]1OC(C(=O)O)=C[C@H](O)[C@H]1O` (stereo partly drawn) [Chondro ΔDi-6S], in the data set with SW480 cells [1], the Cytotoxic result was “No”. In the data set on SW480 cells [2], the “FACTOR G” value is 39.0, the “FACTOR K” value was determined as 1.3, the “FACTOR X” value was −32.7 and the “Total β-gal (ng)” value was 932.2 ng. Moreover, the “effectiveness in enhancing transient expression” value with SW480 cells [2] was “better results than the controls”.
`O=C[C@@H](O)[C@@H](O)[C@H](O)[C@H](O)CO` [Mannose]: in the data set on SW480 cells [1], the Cytotoxic entry is reported as “No”. In the data set with SW480 cells [2], the “FACTOR G” value is reported as 23.5, the “FACTOR K” value is given as 1.0, the “FACTOR X” value is listed as −23.6 and the “Total β-gal (ng)” value was 730.4 ng. For the same compound, the “effectiveness in enhancing transient expression” value with SW480 cells [2] is “effective in enhancing transient expression”.
With chondroitin sulfate, the “effect on transient expression” value in data set [3] is “capable of prolonging transient expression”. The “effect on transient expression when present before or during the transfection step” value in data set [3] (polyanionic carbohydrates, liposomal transfection) was “allowed the transfection to proceed unimpeded; also recorded: enhanced transient expression”. Moreover, the “cell adhesion to microcarrier” value in the data set on SW480 cells [4] is recorded as “enabled the anchorage-dependent cells to adhere well to the microcarrier”.
